Test results reported in patent US11485758B2, “Bi-terminal pegylated integrin-binding peptides and methods of use thereof” (The Regents of the University of California, priority 2014, dated 2022).
Where two headings read alike, the source gives them in different places. Where a SMILES comes first, the peptide text is derived from it. Where no end group is shown, it is not given here. The star is where a group is joined. Benzoyl(4-F) = O=C(c1ccc(F)cc1)*

Key:
αvβ6 integrin = target: T1, αvβ6 integrin (Homo sapiens, UniProt P06756+P18564); assay: Competitive binding ELISA of [19F]FBA peptides for integrin αvβ6
T1 construct: purchased R&D systems (Minneapolis, Minn.)
T1 sequence (P06756 31-889 limits assumed): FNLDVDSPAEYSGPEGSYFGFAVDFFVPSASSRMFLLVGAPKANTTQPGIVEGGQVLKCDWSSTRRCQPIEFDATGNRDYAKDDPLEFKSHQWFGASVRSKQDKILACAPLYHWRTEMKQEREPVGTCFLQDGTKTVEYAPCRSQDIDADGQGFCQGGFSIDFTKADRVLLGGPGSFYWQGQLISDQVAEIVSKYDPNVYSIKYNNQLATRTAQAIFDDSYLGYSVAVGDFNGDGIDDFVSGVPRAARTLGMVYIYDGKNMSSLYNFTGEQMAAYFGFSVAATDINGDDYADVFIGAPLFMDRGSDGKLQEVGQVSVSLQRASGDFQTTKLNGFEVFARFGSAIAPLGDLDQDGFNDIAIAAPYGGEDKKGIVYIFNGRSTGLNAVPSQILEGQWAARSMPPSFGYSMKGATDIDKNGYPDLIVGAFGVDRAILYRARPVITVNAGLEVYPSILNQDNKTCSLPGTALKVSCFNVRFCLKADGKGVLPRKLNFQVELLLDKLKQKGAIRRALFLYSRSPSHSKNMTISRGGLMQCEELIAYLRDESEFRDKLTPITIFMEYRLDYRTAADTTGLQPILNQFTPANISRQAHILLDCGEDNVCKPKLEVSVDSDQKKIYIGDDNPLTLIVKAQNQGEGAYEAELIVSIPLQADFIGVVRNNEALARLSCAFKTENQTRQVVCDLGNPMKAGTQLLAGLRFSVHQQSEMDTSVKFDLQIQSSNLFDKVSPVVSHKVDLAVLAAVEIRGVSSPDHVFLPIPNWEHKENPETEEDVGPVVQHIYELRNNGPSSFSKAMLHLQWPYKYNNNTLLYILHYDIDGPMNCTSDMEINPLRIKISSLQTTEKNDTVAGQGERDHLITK
T1 sequence (P06756 891-992 limits assumed): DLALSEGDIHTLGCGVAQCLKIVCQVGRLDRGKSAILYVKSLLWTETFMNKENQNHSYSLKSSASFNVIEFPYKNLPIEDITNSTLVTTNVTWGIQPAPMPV
T1 sequence (P18564 22-707 limits assumed): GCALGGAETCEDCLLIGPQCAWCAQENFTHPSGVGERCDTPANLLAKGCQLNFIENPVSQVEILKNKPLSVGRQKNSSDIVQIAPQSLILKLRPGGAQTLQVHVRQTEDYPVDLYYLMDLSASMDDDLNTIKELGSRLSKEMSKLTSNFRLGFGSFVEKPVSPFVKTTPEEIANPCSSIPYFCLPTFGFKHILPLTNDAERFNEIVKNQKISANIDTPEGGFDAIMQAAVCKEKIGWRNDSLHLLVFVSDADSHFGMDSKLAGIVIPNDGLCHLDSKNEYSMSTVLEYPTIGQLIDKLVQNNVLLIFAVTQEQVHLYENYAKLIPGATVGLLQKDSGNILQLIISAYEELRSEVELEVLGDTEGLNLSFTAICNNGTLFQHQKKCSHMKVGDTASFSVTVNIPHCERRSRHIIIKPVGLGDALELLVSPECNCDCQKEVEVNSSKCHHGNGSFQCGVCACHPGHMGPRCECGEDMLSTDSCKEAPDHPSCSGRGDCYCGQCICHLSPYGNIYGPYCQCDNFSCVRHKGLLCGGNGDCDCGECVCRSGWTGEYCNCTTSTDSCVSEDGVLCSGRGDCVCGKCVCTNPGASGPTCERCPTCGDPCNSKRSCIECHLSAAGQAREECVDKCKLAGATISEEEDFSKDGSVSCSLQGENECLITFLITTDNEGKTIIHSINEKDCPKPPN
Experimental: Affinity of each peptide was assessed ELISA on Nunc Maxisorp Flat-bottom 96 well plates (affymetrix ebioscience, San Diego, Calif.). Integrin alpha V antibody P2W7 was purchased from Novus Biologicals (Littleton, Colo.). Bovine serum albumin (BSA) was purchased from VWR (Randor, Pa.) and TMB one solution was purchased from Promega (Madison, Wis.). αvβ6 integrin was purchased from R&D systems (Minneapolis, Minn.). Protein biotinylation kit was purchased from Amersham plc (Amersham, UK) while competing natural ligand fibronectin was purchased from Invitrogen (Carlsbad, Calif.). Affinity was measured in absorbance units by the Thermo Multiscan Plate reader with associated Ascent Software (Thermofisher, Waltham, Mass.).
The peptides were allowed to compete for 1 h with biotinylated fibronectin, a natural ligand for αvβ6; or biotinylated vitronectin, when competing against αvβ3. Briefly, a 96-well plate was coated with 50 μL/well of 5 μg/mL P2W7 in phosphate buffered saline (PBS) at 37° C. for 1 h. The plate was washed three times with PBS followed by treatment with PBS containing 5% bovine serum albumin (BSA; fraction V; w/v) and 1% Tween 20 (v/v) at 4° C. for 16 h to block nonspecific binding. The plate was washed with PBS and coated with 50 μL/well integrin in wash buffer (WaB) for 1 h and then washed three times with WaB. WaB consisted of a solution of 2 mmol/L Tris buffer (pH 7.6), 150 mmol/L sodium chloride, 1 mmol/L manganese chloride, and 0.1% Tween 20 (v/v) in deionized water. Triplicate wells were coated with 50 μL/well of a mixture of equal volumes of biotinylated fibronectin (BtFn) for αvβ6, or biotinylated vitronectin (BtVn) for αvβ3, in conjugate buffer, consisting of 1% BSA (fraction V; w/v) in WaB, and a serial dilution of peptide stock (2 mmol/L; 10% DMSO (v/v) in water) from 1 μM to 1 pM. Wells containing no peptide, no peptide and no antibody, or no peptide and no ligand served as controls. The plate was incubated for 1 h at room temperature and washed three times with WaB before ExtrAvidin-horseradish peroxidase conjugate was added (50 μL/well, 1:1,000 dilution in conjugate buffer) at room temperature for 1 h. After washing with WaB, bound BtFn or BtVn was detected by addition of TMB (50 μL/well) and incubation for 10 to 15 min. The reaction was terminated by adding 50 μL/well […] sulfuric acid and absorbance was measured at 450 nm (yellow color of acidified oxidized TMB, indicating fibronectin binding). Calculations of IC50 values are based on data analysis with Prism software (GraphPad Software).

[1] = system: integrin αvβ6-expressing DX3puroβ6 cell line; assay: Cell binding and internalization of radiotracers, DX3puroβ6 cells; type: cell-based, human; details: for Affinity and selectivity for the αvβ6(+)-expressing cell line DX3puroβ6, in words: cell binding vs DX3puro control
[2] = system: αvβ6-negative DX3puro control cell line; assay: Cell binding and internalization of radiotracers, DX3puro control cells; type: cell-based, human
[3] = system: BxPC-3 tumors (endogenous αvβ6-expression); details: 1 h; blocking with 30 mg/kg FBA-PEG28-A20FMDV2 at T=−10 min
Experimental: (PBS) or 37° C. (serum), followed by analysis on radio HPLC. Data are expressed as % probe remaining intact in sample. […] Tumor models—DX3puroβ6/DX3puro: Human melanoma cell line. DX3puroβ6 has been stably transfected to express integrin αvβ6. DX3puro is negative control cell line. […] BxPC-3: Pancreatic cell line with endogenous αvβ6-expression. MIA PaCa-2: Pancreatic cell line, no αvβ6-expression.

[4] = system: BxPC-3 cells (endogenous αvβ6(+)-expression); details: 60 min incubation

CC(C)C[C@H](NC(=O)[C@H](CC(=O)O)NC(=O)[C@H](CO)NC(=O)[C@H](CCCNC(=N)N)NC(=O)c1ccc(F)cc1)C(=O)N[C@H](C(=O)N1CCC[C@H]1C(=O)N[C@@H](CC(C)C)C(=O)N[C@@H](Cc1ccccc1)C(N)=O)[C@@H](C)O ({Benzoyl(4-F)}-RSDLTPLF-NH2)
IC50 (αvβ6 integrin): 7 nM

D(KLAKLAK)2-GG-PEG28-A20FMDV2-K
Affinity and selectivity for the αvβ6(+)-expressing cell line DX3puroβ6, in words [1]: does not affect its affinity, specificity, and internalization-potential

CC(C)C[C@H](NC(=O)[C@H](CC(=O)O)NC(=O)CNC(=O)[C@H](CCCNC(=N)N)NC(=O)[C@H](CC(C)C)NC(=O)[C@H](CC(N)=O)NC(=O)[C@@H]1CCCN1C(=O)[C@@H](NC(=O)[C@H](C)NC(=O)[C@H](CC(N)=O)NC(=O)CCOCCOCCOCCOCCOCCOCCOCCOCCOCCOCCOCCOCCOCCOCCOCCOCCOCCOCCOCCOCCOCCOCCOCCOCCOCCOCCOCCOCCNC(=O)c1ccc(F)cc1)C(C)C)C(=O)N[C@@H](CCC(N)=O)C(=O)N[C@H](C(=O)N[C@@H](CC(C)C)C(=O)N[C@@H](C)C(=O)N[C@@H](CCC(N)=O)C(=O)N[C@@H](CCCCN)C(=O)N[C@H](C(=O)N[C@@H](C)C(=O)N[C@@H](CCCNC(=N)N)C(=O)N[C@H](C(=O)NCCOCCOCCOCCOCCOCCOCCOCCOCCOCCOCCOCCOCCOCCOCCOCCOCCOCCOCCOCCOCCOCCOCCOCCOCCOCCOCCOCCOCCC(N)=O)[C@@H](C)O)C(C)C)C(C)C [PEGylated A20FMDV2 not bearing K(IPA)E]
Binding and internalization in DX3puro control, in words [2]: low
Binding to DX3puroβ6 cells (fraction of total radioactivity) ([1]; 60 min incubation): 52%
Internalized share of bound radioactivity, DX3puroβ6 cells ([1]; of bound radioactivity): 44%

c(RSDLTPLFE)K([^19F]FBA)-NH2 (RSDLTPLFEK((19F)FBA)-NH2; bridge (positions not given here); also: residues 1-9 cyclized, mode not given here)
IC50 (αvβ6 integrin; ELISA, calculated by PRISM, read-out: IC50 against αvβ6): > 300 nM

18F-FBA-PEG28-A20FMDV2-PEG28 [compound 5]
Binding to DX3puro control cells ([2]; 60 min incubation): 3.5±0.2%
Internalization into DX3puro control cells ([2]; 60 min incubation): 0.9±0.1%
Reduction of BxPC-3 tumor uptake vs unblocked [3]: 92%
Binding to DX3puroβ6 cells (fraction of total radioactivity) ([1]; 60 min incubation): 51.0±0.9%
Internalization into DX3puroβ6 cells (of total radioactivity) ([1]; 60 min incubation): 33.5±1.8%
Binding to BxPC-3 cells (fraction of total radioactivity) [4]: 37.2±1.9%
Internalization into BxPC-3 cells (of total radioactivity) [4]: 28.4±0.9%

PEG28-A20FMDV2(K16R)-PEG28
Internalization in αvβ6 cells ([1]; 1 h, basis not given): > 50%
Binding to DX3puroβ6 cells (fraction of total radioactivity) ([1]; 60 min incubation): > 70%

CC(C)C[C@H](NC(=O)[C@H](CC(=O)O)NC(=O)[C@H](CO)NC(=O)[C@@H](N)CCCNC(=N)N)C(=O)N[C@H](C(=O)N1CCC[C@H]1C(=O)N[C@@H](CC(C)C)C(=O)N[C@@H](Cc1ccccc1)C(N)=O)[C@@H](C)O (H-RSDLTPLF-NH2)
IC50 (αvβ6 integrin): 7 nM
Selectivity for αvβ6 over αvβ3 (αvβ6 integrin): 100 times

PEG28-A20FMDV2-GG-D(KLAKLAK)2-K
Affinity and selectivity for the αvβ6(+)-expressing cell line DX3puroβ6, in words [1]: does not affect its affinity, specificity, and internalization-potential
